From the CheMixHub viscosity set

Experiment: xn = mol fraction of the nth substance listed
Conditions: 101 kPa

CCCCCCC(C)O (centres undefined) + CCCCCCCC
298.15 K
Conditions	viscosity [mPa·s]
x2 = 0.0487	5.956
x2 = 0.1002	5.301
x2 = 0.1498	4.654
x2 = 0.2006	3.998
x2 = 0.2516	3.364
x2 = 0.3003	2.796
x2 = 0.3538	2.228
x2 = 0.4003	1.79
x2 = 0.4466	1.411
x2 = 0.5001	1.049
x2 = 0.5517	0.778
x2 = 0.6002	0.59
x2 = 0.6539	0.454
x2 = 0.6994	0.39
x2 = 0.7449	0.366
x2 = 0.8	0.376
x2 = 0.8465	0.402
x2 = 0.9003	0.434
x2 = 0.9521	0.441

CCCCCCC(C)O (centres undefined) + c1ccccc1
viscosity [mPa·s]
Conditions	298.15 K	303.15 K
x2 = 0.0555	5.871	4.689
x2 = 0.1239	5.076	4.101
x2 = 0.1912	4.353	3.577
x2 = 0.2386	3.886	3.224
x2 = 0.3153	3.181	2.703
x2 = 0.4353	2.241	2.018
x2 = 0.4865	1.923	1.764
x2 = 0.6072	1.318	1.264
x2 = 0.6941	1.008	0.986
x2 = 0.7432	0.876	0.876
x2 = 0.8011	0.761	0.754
x2 = 0.8599	0.693	0.667
x2 = 0.909	0.655	0.608
x2 = 0.9541	0.637	0.58

CCOC(=O)C(Br)CC (centres undefined) + CCCCCC
303.15 K
Conditions	viscosity [mPa·s]
x1 = 0.1972	0.3726
x1 = 0.3889	0.5074
x1 = 0.4924	0.6029
x1 = 0.5981	0.7246
x1 = 0.7949	1.032

c1ccncc1 + c1ccccc1
viscosity [mPa·s]
Conditions	x1 = 0.3943	x1 = 0.5905	x1 = 0.7944	x1 = 0.8965	x2 = 0.2	x2 = 0.4	x2 = 0.6	x2 = 0.8
293.15 K	–	–	–	–	0.893	0.832	0.77	0.709
298.15 K	0.7169	0.7726	0.8345	0.8601	–	–	–	–
313.15 K	–	–	–	–	0.678	0.632	0.585	0.538
